Columns and labels:
Format in all cases: functional
[1] = system: Oryza sativa; assay: Growth promoting activity in Oryza sativa assessed as root length at 500 ppm on day 5
[2] = system: Oryza sativa; assay: Growth promoting activity in Oryza sativa assessed as root length at 1000 ppm on day 5
[3] = system: Oryza sativa; assay: Growth promoting activity in Oryza sativa assessed as root length at 62.5 ppm on day 5
[4] = system: Oryza sativa; assay: Growth promoting activity in Oryza sativa assessed as root length at 31.25 ppm on day 5
[5] = system: Oryza sativa; assay: Growth promoting activity in Oryza sativa assessed as shoot length at 62.5 ppm on day 5
[6] = system: Oryza sativa; assay: Growth promoting activity in Oryza sativa assessed as shoot length at 125 ppm on day 5
[7] = system: Oryza sativa; assay: Growth promoting activity in Oryza sativa assessed as root length at 250 ppm on day 5
[8] = system: Oryza sativa; assay: Growth promoting activity in Oryza sativa assessed as shoot length at 500 ppm on day 5
[9] = system: Oryza sativa; assay: Growth promoting activity in Oryza sativa assessed as root length at 125 ppm on day 5
[10] = system: Oryza sativa; assay: Growth promoting activity in Oryza sativa assessed as shoot length at 31.25 ppm on day 5
[11] = system: Oryza sativa; assay: Growth promoting activity in Oryza sativa assessed as shoot length at 250 ppm on day 5
[12] = system: Oryza sativa; assay: Growth promoting activity in Oryza sativa assessed as shoot length at 1000 ppm on day 5

| Structure (SMILES) | Activity [1] | Activity [2] | Activity [3] | Activity [4] | Activity [5] | Activity [6] | Activity [7] | Activity [8] | Activity [9] | Activity [10] | Activity [11] | Activity [12] |
| --- | --- | --- | --- | --- | --- | --- | --- | --- | --- | --- | --- | --- |
| COc1ccc2c(c1)c(Cc1cn(C)c3ccc(OC)cc13)cn2C | 23.3 mm | 20.78 mm | 28.2 mm | 25.7 mm | 11.5 mm | 13.6 mm | 26.72 mm | 9.66 mm | 30.4 mm | 9.78 mm | 11.42 mm | 7.8 mm |
| c1ccc2c(Cc3c[nH]c4ccccc34)c[nH]c2c1 [ARUNDINE] | 22.4 mm | – | 26.3 mm | 24.6 mm | 13.4 mm | 15.7 mm | – | 10.9 mm | 29.5 mm | 11.2 mm | – | 8.45 mm |
| Cn1cc(Cc2cn(C)c3ccccc23)c2ccccc21 | 19.7 mm | 16.72 mm | 23.5 mm | 20.4 mm | 10.7 mm | 12.2 mm | 22.52 mm | 8.37 mm | 25.4 mm | 9.2 mm | 10.3 mm | 6.1 mm |
| Cn1c(-c2ccccc2)c(Cc2c(-c3ccccc3)n(C)c3ccccc23)c2ccccc21 | 28.2 mm | 25.6 mm | 31.2 mm | 29.6 mm | 15.4 mm | 17.2 mm | 30.27 mm | 13.6 mm | 34.5 mm | 13.8 mm | 15.01 mm | 10.8 mm |
| Cn1cc(Cc2cn(C)c3ccc(Br)cc23)c2cc(Br)ccc21 | 15.9 mm | 12.9 mm | 19.6 mm | 16.8 mm | 10.1 mm | 11.4 mm | 18.56 mm | 8.12 mm | 22.6 mm | 9.05 mm | 9.72 mm | 5.92 mm |
| O=C(O)Cc1c[nH]c2ccccc12 [INDOLE-3-ACETIC ACID] | 14.4 mm | – | 18.7 mm | 15.6 mm | 9.81 mm | 10.6 mm | – | 7.66 mm | 20.3 mm | 8.72 mm | – | 5.28 mm |
| Cc1c(Cc2c(C)n(C)c3ccccc23)c2ccccc2n1C | 33.4 mm | 30.72 mm | 36.4 mm | 34.2 mm | 16.4 mm | 18.7 mm | 35.42 mm | 14.7 mm | 39.4 mm | 14.7 mm | 16.8 mm | 12 mm |
| Cn1cc(Cc2cn(C)c3ccc([N+](=O)[O-])cc23)c2cc([N+](=O)[O-])ccc21 | 15.2 mm | 12.12 mm | 18.9 mm | 16.2 mm | 9.96 mm | 11 mm | 18.16 mm | 7.82 mm | 21.4 mm | 8.87 mm | 9.56 mm | 5.76 mm |
| COc1ccc2[nH]cc(Cc3c[nH]c4ccc(OC)cc34)c2c1 | 26.5 mm | 23.62 mm | 30.6 mm | 28.4 mm | 15.3 mm | 17.6 mm | 29.42 mm | 13.4 mm | 33.8 mm | 13.4 mm | 15.23 mm | 11.6 mm |
| c1ccc(-c2[nH]c3ccccc3c2Cc2c(-c3ccccc3)[nH]c3ccccc23)cc1 | 32.6 mm | 29.76 mm | 35.9 mm | 33.6 mm | 17.4 mm | 19.5 mm | 34.2 mm | 15.5 mm | 38.7 mm | 15.2 mm | 17.32 mm | 12.9 mm |
| Cc1[nH]c2ccccc2c1Cc1c(C)[nH]c2ccccc12 | 38.5 mm | 35.12 mm | 42.8 mm | 40.2 mm | 19.6 mm | 21.1 mm | 40.66 mm | 16.3 mm | 46.5 mm | 16.4 mm | 18.57 mm | 13.3 mm |
| Brc1ccc2[nH]cc(Cc3c[nH]c4ccc(Br)cc34)c2c1 | 16.6 mm | 13.8 mm | 21.1 mm | 18.6 mm | 11 mm | 12.7 mm | 19.72 mm | 8.53 mm | 23.2 mm | 9.5 mm | 10.7 mm | 6.7 mm |
